Experimental data as given in ChEMBL document CHEMBL1147402, “Synthesis and antitumour activity of pyrene-linked pyrrolo [2,1-c]benzodiazepine hybrids” (Bioorg Med Chem Lett, 2004).

Key:
Type in all cases: functional
Conditions in all cases: Homo sapiens, read-out: LC50 (the source's name)
[1] = system: SNB-19; assay: In vitro cytotoxicity against CNS SNB-19 cell line
[2] = system: SF-539; assay: In vitro cytotoxicity against CNS SF-539 cell line
[3] = system: M14; assay: In vitro cytotoxicity against melanoma M14 cell line
[4] = system: SR; assay: In vitro cytotoxicity against leukemia SR cell line
[5] = system: NCI-H226; assay: In vitro cytotoxicity against non-small cell lung NCI-H226 cell line
[6] = system: DU-145; assay: In vitro cytotoxicity against prostate DU-145 cell line
[7] = system: A498; assay: In vitro cytotoxicity against […] cell line
[8] = system: HCC 2998; assay: In vitro cytotoxicity against colon […] cell line

COc1cc2c(cc1OCCCC(=O)Nc1cc3cccc4ccc5cccc1c5c43)N=C[C@@H]1CCCN1C2=O
CC50 [1]: 420 nM
CC50 [2]: 180 nM
CC50 [3]: 50 nM
CC50 [4]: 50 nM
CC50 [5]: < 10 nM
CC50 [6]: 240 nM
CC50 [7]: 40 nM
CC50 [8]: 10 nM
